From patent US20250177410A1, “COMBINATION THERAPIES COMPRISING A SOS1 INHIBITOR AND AN EGFR INHIBITOR” (Mirati Therapeutics, Inc., priority 2022, published 2025)
Like-named read-outs stand apart in the source and are kept apart here.

Legend:
[1] = system: PC9 cells harboring EGFR exon 19del (E746_A750del) mutation
Experimental: (§1) Immunocompromised NOD/SCID mice are inoculated in the right hind flank with PC9 cells harboring EGFR exon 19del (E746_A750del) mutation. When tumor volumes reach between 100-150 mm^3 in size, the mice are divided into four groups of 4-12 mice each. The first group is administered vehicle only. […] The fourth and fifth groups are administered the single agent dose of the EGFR inhibitor in combination with the single agent dose of the SOS1 inhibitor. The treatment period was 27 days. Tumor volumes are measured using a caliper every two-three days and tumor volumes are calculated by the formula: 0.5×(Length×Width) 2.
30 NOD/SCID mice were inoculated in the right hind limb with 5×10^6 PC9 cells.

[2] = system: NCI-H1975 cells harboring EGFR L585R/T790M mutations
Experimental: as §1, with “nude/nude” for “NOD/SCID”, “NCI-H1975” for “PC9”, “L585R/T790M mutations.” for “exon 19del (E746_A750del) mutation.”, “200-400” for “100-150”, “21” for “27”, “0.5×(Length×Width)2.” for “0.5×(Length×Width) 2.”
30 nude/nude mice were inoculated in the right hind limb with 5×10^6 NCI-H1975 cells.

[3] = Study Day 3, Osimertinib 2.5 mg/kg QD p.o.
[4] = Study Day 10, Osimertinib 5 mg/kg QD p.o.
[5] = Study Day 21, Osimertinib 5 mg/kg QD p.o.
[6] = Study Day 3, MRTX0902 50 mg/kg p.o.
[7] = Study Day 10, MRTX0902 50 mg/kg p.o.
[8] = Study Day 14, MRTX0902 50 mg/kg p.o.
[9] = Study Day 21, MRTX0902 50 mg/kg p.o.

## C=CC(=O)Nc1cc(Nc2nccc(-c3cn(C)c4ccccc34)n2)c(OC)cc1N(C)CCN(C)C [Osimertinib, osimertinib]
[1]; [3]
  Average Tumor Volume: 124 mm^3
[1]; Study Day 6, Osimertinib 5 mg/kg QD p.o.
  Average Tumor Volume: 95 mm^3
[1]; [4]
  Average Tumor Volume: 69 mm^3
[1]; Study Day 14, Osimertinib 5 mg/kg QD p.o.
  Average Tumor Volume: 65 mm^3
[1]; Study Day 18, Osimertinib 2.5 mg/kg QD p.o.
  Average Tumor Volume: 150 mm^3
[1]; Study Day 18, Osimertinib 5 mg/kg QD p.o.
  Average Tumor Volume: 60 mm^3
[1]; [5]
  Average Tumor Volume: 62 mm^3
[1]; Study Day 24, Osimertinib 2.5 mg/kg QD p.o.
  Average Tumor Volume: 209 mm^3
[1]; Study Day 27, Osimertinib 2.5 mg/kg QD p.o.
  Average Tumor Volume: 214 mm^3
[1]; Study Day −1, Osimertinib 2.5 mg/kg QD p.o.
  Average Tumor Volume: 108 mm^3
[1]; mouse, in vivo
  tumor growth: 92.8%
[1]; osimertinib 5 mg/kg single agent, day 27
  tumor regression: −32.5%
[2]; Study Day 0, Osimertinib 2.5 mg/kg QD p.o.
  Average Tumor Volume: 286 mm^3
[2]; Study Day 0, Osimertinib 5 mg/kg QD p.o.
  Average Tumor Volume: 286 mm^3
[2]; [3]
  Average Tumor Volume: 288 mm^3
[2]; Study Day 3, Osimertinib 5 mg/kg QD p.o.
  Average Tumor Volume: 173 mm^3
[2]; Study Day 7, Osimertinib 2.5 mg/kg QD p.o.
  Average Tumor Volume: 325 mm^3
[2]; [4]
  Average Tumor Volume: 70 mm^3
[2]; Study Day 17, Osimertinib 2.5 mg/kg QD p.o.
  Average Tumor Volume: 468 mm^3
[2]; Study Day 17, Osimertinib 5 mg/kg QD p.o.
  Average Tumor Volume: 83 mm^3
[2]; [5]
  Average Tumor Volume: 135 mm^3
[2]; mouse, in vivo
  tumor growth: 89%
[2]; osimertinib 5 mg/kg single agent, day 17
  tumor regression: −71%

## Cc1c(C#N)cccc1[C@@H](C)Nc1nnc(C)c2cnc(N3CCOCC3)cc12 [MRTX0902, (R)-2-methyl-3-(1-((4-methyl-7-morpholinopyrido[3,4-d]pyridazin-1-yl)amino)ethyl)benzonitrile]
[1]; MRTX0902 50 mg/kg BID
  tumor growth inhibition: 54%
[1]; [6]
  Average Tumor Volume: 197 mm^3
[1]; Study Day 6, MRTX0902 50 mg/kg p.o.
  Average Tumor Volume: 247 mm^3
[1]; [7]
  Average Tumor Volume: 330 mm^3
[1]; [8]
  Average Tumor Volume: 442 mm^3
[1]; Study Day 18, MRTX0902 50 mg/kg p.o.
  Average Tumor Volume: 578 mm^3
[1]; [9]
  Average Tumor Volume: 661 mm^3
[1]; Study Day 24, MRTX0902 50 mg/kg p.o.
  Average Tumor Volume: 755 mm^3
[1]; Study Day 27, MRTX0902 50 mg/kg p.o.
  Average Tumor Volume: 798 mm^3
[1]; Study Day −1, MRTX0902 50 mg/kg p.o.
  Average Tumor Volume: 112 mm^3
[2]; MRTX0902 50 mg/kg BID single agent
  tumor growth inhibition: 26%
[2]; Study Day 0, MRTX0902 50 mg/kg p.o.
  Average Tumor Volume: 285 mm^3
[2]; [6]
  Average Tumor Volume: 504 mm^3
[2]; Study Day 7, MRTX0902 50 mg/kg p.o.
  Average Tumor Volume: 808 mm^3
[2]; [7]
  Average Tumor Volume: 1028 mm^3
[2]; [8]
  Average Tumor Volume: 1387 mm^3
[2]; Study Day 17, MRTX0902 50 mg/kg p.o.
  Average Tumor Volume: 1527 mm^3
[2]; [9]
  Average Tumor Volume: 1372 mm^3
